Reference: the supplement of paper PMC10307832

What was measured:
Assay in all cases: relative viability (nuclei count vs DMSO), 5 days (fraction); higher = more cells survive
Crenolanib + Palbociclib = compound: CC1(COc2ccc3c(c2)ncn3-c2ccc3cccc(N4CCC(N)CC4)c3n2)COC1 [Crenolanib] + CC(=O)c1c(C)c2cnc(Nc3ccc(N4CCNCC4)cn3)nc2n(C2CCCC2)c1=O [Palbociclib] (partner 0.5 µM)
Procedure, shortened: (§1)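 Lung cancer cell lines, seeded in 1536-well plates, were treated the following day by pin tool with a single drug or with five library-drug doses (not always all listed) in √10 steps on top of a fixed anchor-drug dose. Cells were fixed and nuclei stained in one step after 5 days, and nuclei were counted. Relative viability is the nuclei count for treated wells divided by that for vehicle wells, reported as medians of duplicate plates.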

Tivantinib + Palbociclib = compound: O=C1NC(=O)[C@@H](c2cn3c4c(cccc24)CCC3)[C@@H]1c1c[nH]c2ccccc12 [Tivantinib] + CC(=O)c1c(C)c2cnc(Nc3ccc(N4CCNCC4)cn3)nc2n(C2CCCC2)c1=O [Palbociclib] (partner 0.5 µM)
Procedure, shortened: as §1

Crenolanib + AZD7762 = compound: CC1(COc2ccc3c(c2)ncn3-c2ccc3cccc(N4CCC(N)CC4)c3n2)COC1 [Crenolanib] + NC(=O)Nc1cc(-c2cccc(F)c2)sc1C(=O)N[C@H]1CCCNC1 [AZD7762] (partner 0.2 µM)
Procedure, shortened: as §1

Crenolanib + Luminespib = compound: CC1(COc2ccc3c(c2)ncn3-c2ccc3cccc(N4CCC(N)CC4)c3n2)COC1 [Crenolanib] + CCNC(=O)c1noc(-c2cc(C(C)C)c(O)cc2O)c1-c1ccc(CN2CCOCC2)cc1 [Luminespib] (partner 0.01 µM)
Procedure, shortened: as §1

Cell Line	relative viability (Crenolanib + Palbociclib; first compound 0.01 µM)	relative viability (Crenolanib + Palbociclib; first compound 0.03162 µM)	relative viability (Crenolanib + Palbociclib; first compound 0.1 µM)	relative viability (Crenolanib + Palbociclib; first compound 0.3162 µM)	relative viability (Crenolanib + Palbociclib; first compound 1 µM)	relative viability (Tivantinib + Palbociclib; first compound 0.01 µM)	relative viability (Tivantinib + Palbociclib; first compound 0.03162 µM)	relative viability (Tivantinib + Palbociclib; first compound 0.1 µM)	relative viability (Tivantinib + Palbociclib; first compound 0.3162 µM)	relative viability (Crenolanib + AZD7762; first compound 0.03162 µM)	relative viability (Crenolanib + AZD7762; first compound 0.1 µM)	relative viability (Crenolanib + AZD7762; first compound 0.3162 µM)	relative viability (Crenolanib + AZD7762; first compound 1 µM)	relative viability (Crenolanib + Luminespib; first compound 0.03162 µM)	relative viability (Crenolanib + Luminespib; first compound 0.1 µM)	relative viability (Crenolanib + Luminespib; first compound 0.3162 µM)	relative viability (Crenolanib + Luminespib; first compound 1 µM)	relative viability (Crenolanib + AZD7762; first compound 0.01 µM)	relative viability (Crenolanib + Luminespib; first compound 0.01 µM)
ABC-1	0.775	0.638	0.549	0.643	0.899	0.689	0.567	0.577	0.46	0.776	0.961	1.01	0.902	0.655	0.666	0.47	0.611	–	–
SW 900	0.591	–	0.449	0.523	0.554	0.581	0.535	0.588	0.492	–	0.756	0.858	0.522	0.177	0.172	0.218	0.196	0.735	0.167
PC-14	0.489	0.53	0.473	0.593	0.354	0.594	0.578	0.499	0.536	0.305	0.36	0.281	0.328	–	0.154	0.118	0.146	0.39	0.126
NCI-H1648	0.254	–	0.262	0.29	0.267	–	0.235	0.21	0.267	–	0.673	0.673	0.745	–	–	–	–	0.666	–
A-427	0.542	–	0.554	0.569	0.51	0.547	0.551	0.484	0.507	–	0.726	0.802	0.853	0.828	0.916	1.01	0.816	0.778	0.84
